Data reported in patent US8685924B2, “Preventives/remedies for stress urinary incontinence and method of screening the same” (Takeda Pharmaceutical Company Limited, priority 2004, dated 2014).

Key:
Assay type in all cases: in vivo, rat
[1] = system: urethane-anesthetized female rats; assay: Leak point pressure by direct compressing of the bladder (Example 4); conditions: for leak point pressure after drug administration / leak point pressure increase / leak point pressure before drug administration: i.v., mean ± SEM; for leak point pressure after drug administration: 20 min later; for leak point pressure before drug administration: baseline; for effect on leak point pressure: intravenous administration
Procedure: (§1) SD female rats (body weight 180-350 g) were anesthetized with urethane (Wako Pure Chemical Industries, Ltd.), and halothane (Takeda Pharmaceutical Company Limited) anesthesia was added when necessary during operation.
(§2) The spinal cord was transected at T8-9 level to eliminate the reflex voiding. The lower abdomen was incised in the median line, a catheter for intravesical pressure measurement (PE-90, Clay Adams) was inserted into the bladder and secured with a ligature, and the intravesical pressure was measured via a pressure transducer. Urine was emptized in advance by bilaterally pressing the bladder with two swabs, and a 0.1% Evans blue (Merck) solution (0.4 mL) was injected into the bladder. The bladder was gradually compressed bilaterally with two swabs, and the intravesical pressure upon saline leakage from the urethral orifice was measured and defined as a leak point pressure. The measurement of the leak point pressure was repeated, and the average value of the final five stable measures was taken as the value before drug administration. Thereafter, the drug was intravenously administered, the leak point pressure was measured again 20 min later, and the value after the drug administration was determined. DOI, mCPP and eltoprazine were dissolved in saline, and other drugs were dissolved in DMA/PEG400 (1:1), and intravenously administered at 1 ml/kg and 0.5 mg/kg, respectively. Depending on the experiment, RS-102221 or SB221284 (showing serotonin 5-HT2C receptor antagonist activity) was administered, 5 min later, WAY-161503 or WAY-163909 was administered, leak point pressure was measured 10 min later, and a competitive assay with the action of WAY-161503 or WAY-163909 was performed. RS-102221 and SB221284 were both dissolved in DMA/PEG400 (1:1), and intravenously administered at 0.5 ml/kg.

[2] = system: urethane-anesthetized female rats; assay: Leak point pressure by intravesical pressure-clamp method (Example 6); conditions: for leak point pressure after drug administration / leak point pressure before drug administration: i.v., mean ± SEM; for leak point pressure after drug administration: 10 min later; for leak point pressure before drug administration: baseline; for effect on leak point pressure: intravesical pressure-clamp method
Procedure: (§3) SD female rats (body weight 180-350 g) were anesthetized with urethane (Wako Pure Chemical Industries, Ltd.), and the spinal cord was transected at T8-9 level to eliminate the reflex voiding.
Halothane (Takeda Pharmaceutical Company Limited) anesthesia was added when necessary during operation. After laparotomy, the bladder neck was tied with a suture thread and then a catheter (PE-90, Clay Adams) was inserted into the bladder and secured with a ligature. The other end of the bladder catheter was connected to a pressure transducer and saline storage reservoir (60 ml syringe) via a three-way cock.
Changes in the intravesical pressure measured by a transducer were input in a computer via an amplifier (blood pressure amplification unit AP-641G; NIHON KODEN) and an analog-to-digital cinverter (MP-100; biopack) and recorded on a hard disc. The intravesical pressure was raised for 90 sec by setting the saline storage reservoir at a given height, and the presence or absence of saline leakage from the urethral orifice was observed. The intravesical pressure was raised every 2.5 cmH2O and, after 90 sec observation period, the intravesical pressure was once returned to 0 cmH2O, after which the next step was performed. The intravesical pressure at which the saline leakage from the urethral orifice was observed was taken as the leak point pressure. The measurement of the leak point pressure was repeated and the average of the final three measures was taken as the value before the drug administration. The drug was intravenously administered, and the leak point pressure was measured again 10 min later. The drug was dissolved in DMA-PEG400 (1:1), and administered at 0.5 ml/kg.

[3] = system: urethane-anesthetized female rats; assay: Urethral contractile responses induced by intravesical pressure increase (Example 5); conditions: for urethral contractile responses before administration: baseline; for urethral contractile responses before administration / urethral contractile responses after administration: mean ± SEM of 5 cases; for urethral contractile responses after administration: 5 min later; for effect on urethral contractile responses during elevation of intravesical pressure: intravenous, duloxetine 10 mg/kg, WAY161503 0.3 mg/kg
Procedure: as §3
Halothane (Takeda Pharmaceutical Company Limited) anesthesia was added when necessary during operation. After laparotomy, the bladder neck was tied with a suture thread and then a catheter (PE-90, Clay Adams) was inserted into the bladder and secured with a ligature. The other end of the bladder catheter was connected to a pressure transducer and saline storage reservoir (60 ml syringe) via a three-way stopcock. A microchip-transducer-catheter (SPR-524, Millar Instruments Inc.) was inserted from the meatus urethra. toward the bladder. Using the scale written on the catheter surface, the transducer part was set in the urethra at 12.5-15.0 mm from the urethral orifice with its side-mounted sensor facing the inner urethral surface in the 3 o'clock position.
Topical pressure changes in the urethra (hereinafter to be conveniently indicated as intraurethral pressure) measured by a microchip-transducer were input in a computer via an amplifier (blood pressure amplification unit AP-641G; NIHON KODEN) and an analog-to-digital converter (MP-100; biopack; sampled at 500 Hz) and recorded on a hard disc. […] The response of the urethra induced by the intravesical pressure increase was measured 3 times and the average of the final two measures was taken as the value before the drug administration.
The evaluation parameters were a resting intraurethral pressure and a reflex urethral contractile responses. An average intraurethral pressure per 1 sec was calculated, and the value immediately before intravesical pressure increase was taken as the resting intraurethral pressure, and the value obtained by subtracting the resting intraurethral pressure from the maximum value during intravesical pressure increase was taken as the urethral responses. After measurement of the response before drug administration, WAY-161503 (0.3 mg/kg), which is a serotonin 5-HT2C receptor agonist, or duloxetine (10 mg/kg) was intravenously administered, the intravesical pressure was increased again 5 min later, and the responses of the urethra were measured. The both drugs were dissolved in DMA-PEG400 (1:1), and administered at 0.5 ml/kg.

[4] = system: urethane-anesthetized female rats; assay: Antagonism of the leak point pressure increase by WAY-161503 / WAY-163909, direct bladder compression method (Example 4); conditions: agonist 0.3 mg/kg, i.v., antagonist: solvent, mean ± SEM
Procedure: as §1, §2

SMILES	leak point pressure after drug administration ([1]; 0.03 mg/kg) [cmH2O]	leak point pressure increase ([1]; 0.03 mg/kg) [cmH2O]	leak point pressure after drug administration ([1]; 0.1 mg/kg) [cmH2O]	leak point pressure increase ([1]; 0.1 mg/kg) [cmH2O]	leak point pressure after drug administration ([1]; 0.3 mg/kg) [cmH2O]	leak point pressure increase ([1]; 0.3 mg/kg) [cmH2O]	leak point pressure before drug administration ([1]; dose group 0.03 mg/kg) [cmH2O]	leak point pressure before drug administration ([1]; dose group 0.1 mg/kg) [cmH2O]	leak point pressure before drug administration ([1]; dose group 0.3 mg/kg) [cmH2O]	effect on leak point pressure [1]	leak point pressure after drug administration ([2]; 0.01 mg/kg) [cmH2O]	leak point pressure before drug administration ([2]; dose group 0.01 mg/kg) [cmH2O]	effect on leak point pressure [2]	effect on urethral contractile responses during elevation of intravesical pressure [3]	other results
CNCC[C@H](Oc1cccc2ccccc12)c1cccs1 [duloxetine]	67.8 ± 2.9	6.5 ± 1.6	72.6 ± 3.4	9.3 ± 1.2	73.3 ± 3.9	8.8 ± 2.1	61.3 ± 3.3	63.3 ± 3.8	64.5 ± 3.5	increased the leak point pressure	42.8 ± 4.9	37.0 ± 4.5	increased the leak point pressure	enhanced the urethral contractile responses	leak point pressure after drug administration ([1]; 0.01 mg/kg): 60.5 ± 5.1 cmH2O; leak point pressure increase ([1]; 0.01 mg/kg): 2.4 ± 2.6 cmH2O; leak point pressure after drug administration ([1]; 1 mg/kg): 75.0 ± 4.0 cmH2O; leak point pressure increase ([1]; 1 mg/kg): 13.9 ± 1.8 cmH2O; leak point pressure before drug administration ([1]; dose group 0.01 mg/kg): 58.1 ± 6.0 cmH2O; leak point pressure before drug administration ([1]; dose group 1 mg/kg): 61.1 ± 3.4 cmH2O; leak point pressure after drug administration ([2]; 0.001 mg/kg): 38.2 ± 3.7 cmH2O; leak point pressure before drug administration ([2]; dose group 0.001 mg/kg): 36.5 ± 4.2 cmH2O; urethral contractile responses before administration ([3]; increase in intravesical pressure to 25 cmH2O, dose group 10 mg/kg i.v.): 8.5 ± 0.5 cmH2O; urethral contractile responses before administration ([3]; increase in intravesical pressure to 50 cmH2O, dose group 10 mg/kg i.v.): 13.4 ± 2.1 cmH2O; urethral contractile responses after administration ([3]; increase in intravesical pressure to 25 cmH2O, 10 mg/kg i.v.): 11.4 ± 0.6 cmH2O; urethral contractile responses after administration ([3]; increase in intravesical pressure to 50 cmH2O, 10 mg/kg i.v.): 17.8 ± 2.2 cmH2O
O=C1Nc2cc(Cl)c(Cl)cc2N2CCNCC12 (stereo not drawn) [WAY-161503]	62.0 ± 5.8	7.1 ± 2.4	66.1 ± 2.8	11.5 ± 1.8	77.7 ± 3.6	22.0 ± 3.4	54.9 ± 6.1	54.7 ± 2.5	55.7 ± 3.8	dose-dependently increased the leak point pressure	37.3 ± 3.5	33.4 ± 3.4	increased the leak point pressure	significant increase in the urethral contractile responses	leak point pressure after drug administration ([2]; 0.03 mg/kg): 41.2 ± 3.0 cmH2O; leak point pressure after drug administration ([2]; 1 mg/kg): 43.6 ± 3.2 cmH2O; leak point pressure before drug administration ([2]; dose group 0.03 mg/kg): 34.8 ± 3.2 cmH2O; leak point pressure before drug administration ([2]; dose group 1 mg/kg): 34.8 ± 3.0 cmH2O; urethral contractile responses before administration ([3]; increase in intravesical pressure to 25 cmH2O, dose group 0.3 mg/kg i.v.): 7.0 ± 1.4 cmH2O; urethral contractile responses before administration ([3]; increase in intravesical pressure to 50 cmH2O, dose group 0.3 mg/kg i.v.): 12.8 ± 2.4 cmH2O; urethral contractile responses after administration ([3]; increase in intravesical pressure to 25 cmH2O, 0.3 mg/kg i.v.): 11.3 ± 1.8 cmH2O; urethral contractile responses after administration ([3]; increase in intravesical pressure to 50 cmH2O, 0.3 mg/kg i.v.): 19.2 ± 3.4 cmH2O; leak point pressure after drug administration [4]: 87.1 ± 4.3 cmH2O; leak point pressure increase [4]: 17.4 ± 1.9 cmH2O; leak point pressure before drug administration ([4]; baseline): 69.7 ± 3.9 cmH2O
